Experimental data as given in ChEMBL document CHEMBL1201861, “Genomics of Drug Sensitity in Cancer screening data, Wellcome Trust Sanger Institute”.
pIC50: −log10 of the molar value.

Legend:
Type in all cases: functional, cell-based
NCI-H1963 = assay: cells; settings: Homo sapiens;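 also: cell growth inhibition of the human line, determined with a cell viability assay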
Description: SANGER: Inhibition of human NCI-H1963 cell growth in a cell viability assay.

WSU-NHL = assay: cells; settings: Homo sapiens;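 also: growth inhibition of human WSU-NHL cells, read out with a cell viability assay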
Description: SANGER: Inhibition of human WSU-NHL cell growth in a cell viability assay.

PF-382 = assay: cells; settings: Homo sapiens
Description: SANGER: Inhibition of human PF-382 cell growth in a cell viability assay.

THP-1 = assay: cells; settings: Homo sapiens;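 also: growth inhibition of THP-1 cells, read out via a cell viability assay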
Description: SANGER: Inhibition of human THP-1 cell growth in a cell viability assay.

K052 = assay: cells; settings: Homo sapiens;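 also: Read-out from a cell viability assay, IC50 reflecting suppression of K052 cell growth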
Description: SANGER: Inhibition of human K052 cell growth in a cell viability assay.

ECC4 = assay: cells; settings: Homo sapiens;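 also: growth inhibition of ECC4 cells, read out with a cell viability assay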
Description: SANGER: Inhibition of human ECC4 cell growth in a cell viability assay.

GDM-1 = assay: cells; settings: Homo sapiens;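 also: cell viability readout used to measure growth inhibition of human GDM-1 cells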
Description: SANGER: Inhibition of human GDM-1 cell growth in a cell viability assay.

IM-9 = assay: SANGER: Inhibition of human IM-9 cell growth in a cell viability assay.
NCI-H524 = assay: cells; settings: Homo sapiens;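 also: growth inhibition of human NCI-H524 cells, read out through a cell viability assay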
Description: SANGER: Inhibition of human NCI-H524 cell growth in a cell viability assay.

EHEB = assay: cells; settings: Homo sapiens;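 also: growth inhibition of human EHEB cells, read out with a cell viability assay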
Description: SANGER: Inhibition of human EHEB cell growth in a cell viability assay.

NB1 = assay: cells; settings: Homo sapiens;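 also: reduction of NB1 cell proliferation, read out with a viability assay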
Description: SANGER: Inhibition of human NB1 cell growth in a cell viability assay.

SUP-T1 = assay: cells; settings: Homo sapiens;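 also: growth inhibition of human SUP-T1 cells, read out as cell viability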
Description: SANGER: Inhibition of human SUP-T1 cell growth in a cell viability assay.

EB2 = assay: cells; settings: Homo sapiens;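 also: growth inhibition of EB2 cells, read out with a cell viability assay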
Description: SANGER: Inhibition of human EB2 cell growth in a cell viability assay.

TGW = assay: cells; settings: Homo sapiens;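 also: growth inhibition of human TGW cells, read out with a cell viability assay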
Description: SANGER: Inhibition of human TGW cell growth in a cell viability assay.

JIYOYE = assay: cells; settings: Homo sapiens
Description: SANGER: Inhibition of human JiyoyeP-2003 cell growth in a cell viability assay.

NCI-H748 = assay: cells; settings: Homo sapiens;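 also: growth inhibition of NCI-H748 cells, measured by a cell viability assay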
Description: SANGER: Inhibition of human NCI-H748 cell growth in a cell viability assay.

BC-3 = assay: cells; settings: Homo sapiens;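 also: cell viability assay measuring growth inhibition of human BC-3 cells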
Description: SANGER: Inhibition of human BC-3 cell growth in a cell viability assay.

NCI-H2081 = assay: cells; settings: Homo sapiens;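 also: growth inhibition of human NCI-H2081 cells, read out with a cell viability assay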
Description: SANGER: Inhibition of human NCI-H2081 cell growth in a cell viability assay.

RPMI-6666 = assay: cells; settings: Homo sapiens
Description: SANGER: Inhibition of human RPMI-6666 cell growth in a cell viability assay.

NCI-H889 = assay: cells; settings: Homo sapiens;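 also: cell growth inhibition of the cell line, read out with a viability assay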
Description: SANGER: Inhibition of human NCI-H889 cell growth in a cell viability assay.

LC4-1 = assay: cells; settings: Homo sapiens;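 also: growth inhibition of LC4-1 cells, read out with a cell viability assay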
Description: SANGER: Inhibition of human LC4-1 cell growth in a cell viability assay.

UACC-893 = assay: cells; settings: Homo sapiens
Description: SANGER: Inhibition of human UACC-893 cell growth in a cell viability assay.

KYSE-450 = assay: cells; settings: Homo sapiens;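 also: cell growth inhibition measured by a viability assay in human KYSE-450 cells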
Description: SANGER: Inhibition of human KYSE-450 cell growth in a cell viability assay.

T84 = assay: cells; settings: Homo sapiens;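 also: growth inhibition measured with a cell viability readout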
Description: SANGER: Inhibition of human T84 cell growth in a cell viability assay.

SK-N-AS = assay: cells; settings: Homo sapiens;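 also: growth inhibition of human SK-N-AS cells, measured with a cell viability assay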
Description: SANGER: Inhibition of human SK-N-AS cell growth in a cell viability assay.

HPAF-II = assay: cells; settings: Homo sapiens;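 also: growth inhibition of HPAF-II cells, read out with a cell viability assay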
Description: SANGER: Inhibition of human HPAF-II cell growth in a cell viability assay.

EGI-1 = assay: cells; settings: Homo sapiens;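 also: cell viability readout used to gauge growth inhibition of EGI-1 cells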
Description: SANGER: Inhibition of human EGI-1 cell growth in a cell viability assay.

BFTC-909 = assay: cells; settings: Homo sapiens
Description: SANGER: Inhibition of human BFTC-909 cell growth in a cell viability assay.

TYK-nu = assay: cells; settings: Homo sapiens;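 also: growth inhibition of human TYK-nu cells, read out by a cell viability assay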
Description: SANGER: Inhibition of human TYK-nu cell growth in a cell viability assay.

CAL-51 = assay: cells; settings: Homo sapiens;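 also: human CAL-51 cell line, growth inhibition read out via a cell viability assay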
Description: SANGER: Inhibition of human CAL-51 cell growth in a cell viability assay.

M059J = assay: cells; settings: Homo sapiens;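 also: growth inhibition of M059J cells, read out with a cell viability assay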
Description: SANGER: Inhibition of human M059J cell growth in a cell viability assay.

C32 = assay: cells; settings: Homo sapiens;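 also: cell viability assay, with IC50 reflecting inhibition of C32 cell growth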
Description: SANGER: Inhibition of human C32 cell growth in a cell viability assay.

769-P = assay: cells; settings: Homo sapiens
Description: SANGER: Inhibition of human 769-P cell growth in a cell viability assay.

AU565 = assay: cells; settings: Homo sapiens;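 also: cell viability assay measuring growth inhibition of human AU565 cells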
Description: SANGER: Inhibition of human AU565 cell growth in a cell viability assay.

SW948 = assay: cells; settings: Homo sapiens;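 also: growth inhibition of SW948 cells, read out with a cell viability assay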
Description: SANGER: Inhibition of human SW948 cell growth in a cell viability assay.

RMG-I = assay: cells; settings: Homo sapiens;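 also: growth inhibition of human RMG-I cells, read out with a cell viability assay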
Description: SANGER: Inhibition of human RMG-I cell growth in a cell viability assay.

U-251 = assay: cells; settings: Homo sapiens;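 also: growth inhibition of human U-251 cells, read out through a cell viability assay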
Description: SANGER: Inhibition of human U251 cell growth in a cell viability assay.

EFM-19 = assay: cells; settings: Homo sapiens;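 also: growth inhibition of human EFM-19 cells, measured in a cell viability assay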
Description: SANGER: Inhibition of human EFM-19 cell growth in a cell viability assay.

NCI-H2009 = assay: cells; settings: Homo sapiens;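 also: cell viability assay measuring inhibition of NCI-H2009 cell growth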
Description: SANGER: Inhibition of human NCI-H2009 cell growth in a cell viability assay.

CP50-MEL-B = assay: cells; settings: Homo sapiens;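 also: growth inhibition of the human cell line, measured with a cell viability read-out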
Description: SANGER: Inhibition of human CP50-MEL-B cell growth in a cell viability assay.

OVCAR-8 = assay: cells; settings: Homo sapiens;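 also: growth inhibition of human OVCAR-8 cells, read out by a cell viability assay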
Description: SANGER: Inhibition of human OVCAR-8 cell growth in a cell viability assay.

SW1463 = assay: cells; settings: Homo sapiens;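 also: growth inhibition of SW1463 cells, determined with a cell viability assay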
Description: SANGER: Inhibition of human SW1463 cell growth in a cell viability assay.

AGS = assay: cells; settings: Homo sapiens;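 also: growth inhibition of AGS cells, determined with a cell viability assay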
Description: SANGER: Inhibition of human AGS cell growth in a cell viability assay.

NCI-N87 = assay: cells; settings: Homo sapiens;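 also: growth inhibition of human NCI-N87 cells, read out with a cell viability assay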
Description: SANGER: Inhibition of human NCI-N87 cell growth in a cell viability assay.

SK-MEL-24 = assay: cells; settings: Homo sapiens;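 also: growth inhibition read out by a cell viability assay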
Description: SANGER: Inhibition of human SK-MEL-24 cell growth in a cell viability assay.

NCI-H727 = assay: cells; settings: Homo sapiens;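 also: growth inhibition of human NCI-H727 cells, read out with a cell viability assay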
Description: SANGER: Inhibition of human NCI-H727 cell growth in a cell viability assay.

KYSE-140 = assay: cells; settings: Homo sapiens;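 also: cell viability assay measuring growth inhibition in human KYSE-140 cells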
Description: SANGER: Inhibition of human KYSE-140 cell growth in a cell viability assay.

NCI-H2347 = assay: cells; settings: Homo sapiens;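 also: growth inhibition of the cell line, read out with a cell viability assay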
Description: SANGER: Inhibition of human NCI-H2347 cell growth in a cell viability assay.

COLO-679 = assay: cells; settings: Homo sapiens
Description: SANGER: Inhibition of human COLO-679 cell growth in a cell viability assay.

D-542MG = assay: cells; settings: Homo sapiens
Description: SANGER: Inhibition of human D-542MG cell growth in a cell viability assay.

KP-4 = assay: cells; settings: Homo sapiens;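 also: human KP-4 cells, with growth inhibition read out through a cell viability assay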
Description: SANGER: Inhibition of human KP-4 cell growth in a cell viability assay.

Detroit 562 = assay: cells; settings: Homo sapiens;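 also: growth inhibition of human Detroit 562 cells, read out by a cell viability assay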
Description: SANGER: Inhibition of human Detroit562 cell growth in a cell viability assay.

T47D = assay: cells; settings: Homo sapiens;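 also: growth inhibition of human T47D cells, measured with a cell viability assay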
Description: SANGER: Inhibition of human T47D cell growth in a cell viability assay.

NCI-H1993 = assay: cells; settings: Homo sapiens;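 also: growth inhibition of the cancer cell line, assessed with a cell viability assay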
Description: SANGER: Inhibition of human NCI-H1993 cell growth in a cell viability assay.

UO-31 = assay: cells; settings: Homo sapiens
Description: SANGER: Inhibition of human U031 cell growth in a cell viability assay.

Ca-Ski = assay: cells; settings: Homo sapiens;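 also: cell viability assay measuring inhibition of Ca-Ski cell growth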
Description: SANGER: Inhibition of human Ca-Ski cell growth in a cell viability assay.

CaR-1 = assay: cells; settings: Homo sapiens;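 also: growth inhibition of human CaR-1 cancer cells, read out with a cell viability assay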
Description: SANGER: Inhibition of human CaR-1 cell growth in a cell viability assay.

RVH-421 = assay: cells; settings: Homo sapiens
Description: SANGER: Inhibition of human RVH-421 cell growth in a cell viability assay.

VMRC-RCZ = assay: cells; settings: Homo sapiens
Description: SANGER: Inhibition of human VMRC-RCZ cell growth in a cell viability assay.

RPMI-7951 = assay: cells; settings: Homo sapiens
Description: SANGER: Inhibition of human RPMI-7951 cell growth in a cell viability assay.

RERF-LC-MS = assay: cells; settings: Homo sapiens;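 also: growth inhibition of human RERF-LC-MS cells, read out by a cell viability assay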
Description: SANGER: Inhibition of human RERF-LC-MS cell growth in a cell viability assay.

YAPC = assay: cells; settings: Homo sapiens;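 also: growth inhibition of YAPC cells, measured with a cell viability assay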
Description: SANGER: Inhibition of human YAPC cell growth in a cell viability assay.

P12-Ichikawa = assay: cells; settings: Homo sapiens
HT-3 = assay: cells; settings: Homo sapiens;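 also: growth inhibition measured with a cell viability readout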
Description: SANGER: Inhibition of human HT-3 cell growth in a cell viability assay.

CAL-85-1 = assay: cells; settings: Homo sapiens
Description: SANGER: Inhibition of human CAL-85-1 cell growth in a cell viability assay.

In the case of CCNc1cc(N[C@H]2CC[C@@H](O)CC2)nc(Nc2ccc3c(ccn3Cc3ccccc3)c2)n1, the pIC50 (NCI-H1963) was < 5.29, the pIC50 (WSU-NHL) was < 5.29 and the pIC50 (PF-382) was < 5.29. For the same compound, the pIC50 (THP-1) was < 5.29, the pIC50 (K052) was < 5.29 and the pIC50 (ECC4) was < 5.29. The pIC50 (GDM-1) was < 5.29, the pIC50 (IM-9) was < 5.29 and the pIC50 (NCI-H524) was < 5.29. For the same compound, the pIC50 (EHEB) was < 5.29, the pIC50 (NB1) was < 5.29 and the pIC50 (SUP-T1) was < 5.29. For the same compound, the pIC50 (EB2) was < 5.29, the pIC50 (TGW) was < 5.29 and the pIC50 (JIYOYE) was < 5.29. The pIC50 (NCI-H748) was < 5.29, the pIC50 (BC-3) was < 5.29 and the pIC50 (NCI-H2081) was < 5.29. For the same compound, the pIC50 (RPMI-6666) was < 5.29, the pIC50 (NCI-H889) was < 5.29 and the pIC50 (LC4-1) was < 5.29.

In the case of O=c1cc(N2CCOCC2)oc2c(-c3cccc4c3sc3ccccc34)cccc12, the pIC50 (UACC-893) was < 5.70, the pIC50 (KYSE-450) was < 5.70 and the pIC50 (T84) was < 5.70. For the same compound, the pIC50 (SK-N-AS) was 6.21, the pIC50 (HPAF-II) was < 5.70 and the pIC50 (EGI-1) was < 5.70. For the same compound, the pIC50 (BFTC-909) was < 5.70, the pIC50 (TYK-nu) was < 5.70 and the pIC50 (CAL-51) was < 5.70. The pIC50 (M059J) was < 5.70, the pIC50 (C32) was < 5.70 and the pIC50 (769-P) was < 5.70. The pIC50 (AU565) was < 5.70, the pIC50 (SW948) was < 5.70 and the pIC50 (RMG-I) was < 5.70. For the same compound, the pIC50 (U-251) was < 5.70, the pIC50 (EFM-19) was < 5.70 and the pIC50 (NCI-H2009) was < 5.70. The pIC50 (CP50-MEL-B) was < 5.70, the pIC50 (OVCAR-8) was < 5.70 and the pIC50 (SW1463) was < 5.70. The pIC50 (AGS) was < 5.70, the pIC50 (NCI-N87) was < 5.70 and the pIC50 (TGW) was < 5.70. The pIC50 (SK-MEL-24) was < 5.70, the pIC50 (NCI-H727) was < 5.70 and the pIC50 (KYSE-140) was < 5.70. The pIC50 (NCI-H2347) was < 5.70, the pIC50 (COLO-679) was < 5.70 and the pIC50 (D-542MG) was < 5.70. For the same compound, the pIC50 (KP-4) was < 5.70, the pIC50 (Detroit 562) was < 5.70 and the pIC50 (T47D) was < 5.70. The pIC50 (NCI-H1993) was < 5.70, the pIC50 (UO-31) was < 5.70 and the pIC50 (Ca-Ski) was < 5.70. The pIC50 (CaR-1) was < 5.70, the pIC50 (RVH-421) was < 5.70 and the pIC50 (VMRC-RCZ) was < 5.70. The pIC50 (RPMI-7951) was < 5.70, the pIC50 (RERF-LC-MS) was < 5.70 and the pIC50 (YAPC) was < 5.70. For the same compound, the pIC50 (P12-Ichikawa) was < 5.70, the pIC50 (HT-3) was < 5.70 and the pIC50 (CAL-85-1) was < 5.70.

For CCCS(=O)(=O)Nc1ccc(F)c(C(=O)c2c[nH]c3ncc(Cl)cc23)c1F [PLX-4720], the pIC50 (UACC-893) was < 5.00, the pIC50 (KYSE-450) was < 5.00 and the pIC50 (T84) was < 5.00. The pIC50 (SK-N-AS) was < 5.00, the pIC50 (HPAF-II) was < 5.00 and the pIC50 (EGI-1) was < 5.00. The pIC50 (BFTC-909) was < 5.00, the pIC50 (TYK-nu) was < 5.00 and the pIC50 (CAL-51) was < 5.00. For the same compound, the pIC50 (M059J) was < 5.00, the pIC50 (C32) was 6.82 and the pIC50 (769-P) was < 5.00. The pIC50 (AU565) was < 5.00, the pIC50 (SW948) was < 5.00 and the pIC50 (RMG-I) was < 5.00. For the same compound, the pIC50 (U-251) was < 5.00, the pIC50 (EFM-19) was < 5.00 and the pIC50 (NCI-H2009) was < 5.00. For the same compound, the pIC50 (CP50-MEL-B) was 6.53, the pIC50 (OVCAR-8) was < 5.00 and the pIC50 (SW1463) was < 5.00. For the same compound, the pIC50 (AGS) was < 5.00, the pIC50 (NCI-N87) was < 5.00 and the pIC50 (TGW) was < 5.00. For the same compound, the pIC50 (SK-MEL-24) was < 5.00, the pIC50 (NCI-H727) was < 5.00 and the pIC50 (KYSE-140) was < 5.00. The pIC50 (NCI-H2347) was < 5.00, the pIC50 (COLO-679) was 5.96 and the pIC50 (D-542MG) was < 5.00. For the same compound, the pIC50 (KP-4) was 5.64, the pIC50 (Detroit 562) was < 5.00 and the pIC50 (T47D) was < 5.00. For the same compound, the pIC50 (NCI-H1993) was < 5.00, the pIC50 (UO-31) was < 5.00 and the pIC50 (Ca-Ski) was < 5.00. The pIC50 (CaR-1) was < 5.00, the pIC50 (RVH-421) was 6.06 and the pIC50 (VMRC-RCZ) was < 5.00. The pIC50 (RPMI-7951) was 5.24, the pIC50 (RERF-LC-MS) was < 5.00 and the pIC50 (YAPC) was < 5.00. The pIC50 (P12-Ichikawa) was < 5.00, the pIC50 (HT-3) was < 5.00 and the pIC50 (CAL-85-1) was < 5.00.

With CC[C@]1(O)C[C@@H]2CN(CCc3c([nH]c4ccccc34)[C@@](C(=O)OC)(c3cc4c(cc3OC)N(C)[C@H]3[C@@](O)(C(=O)OC)[C@H](OC(C)=O)[C@]5(CC)C=CCN6CC[C@]43[C@@H]65)C2)C1 [VINBLASTINE] the pIC50 (UACC-893) was 7.01, the pIC50 (KYSE-450) was 8.02 and the pIC50 (T84) was < 7.00. It also gave a pIC50 (SK-N-AS) of 8.06, a pIC50 (HPAF-II) of 7.40 and a pIC50 (EGI-1) of 7.97. The pIC50 (BFTC-909) was 8.12, the pIC50 (TYK-nu) was 7.92 and the pIC50 (CAL-51) was 7.79. The pIC50 (M059J) was 7.82, the pIC50 (C32) was < 7.00 and the pIC50 (769-P) was 7.59. For the same compound, the pIC50 (AU565) was 8.46, the pIC50 (SW948) was 7.12 and the pIC50 (RMG-I) was < 7.00. The pIC50 (U-251) was 8.30, the pIC50 (EFM-19) was 8.28 and the pIC50 (NCI-H2009) was 7.27. For the same compound, the pIC50 (CP50-MEL-B) was 7.88, the pIC50 (OVCAR-8) was 8.18 and the pIC50 (SW1463) was 7.16. It also gave a pIC50 (AGS) of 7.91, a pIC50 (NCI-N87) of 8.25 and a pIC50 (SK-MEL-24) of 7.50. The pIC50 (NCI-H727) was < 7.00, the pIC50 (KYSE-140) was 7.35 and the pIC50 (NCI-H2347) was < 7.00. For the same compound, the pIC50 (COLO-679) was < 7.00, the pIC50 (D-542MG) was < 7.00 and the pIC50 (KP-4) was 8.63. The pIC50 (Detroit 562) was 8.26, the pIC50 (T47D) was 8.11 and the pIC50 (NCI-H1993) was < 7.00. For the same compound, the pIC50 (UO-31) was 7.86, the pIC50 (Ca-Ski) was 8.33 and the pIC50 (CaR-1) was 7.34. It also gave a pIC50 (RVH-421) of 8.14, a pIC50 (VMRC-RCZ) of 7.72 and a pIC50 (RPMI-7951) of 8.78. It also gave a pIC50 (RERF-LC-MS) of 7.82, a pIC50 (YAPC) of 7.06 and a pIC50 (P12-Ichikawa) of 8.77. For the same compound, the pIC50 (HT-3) was 7.43 and the pIC50 (CAL-85-1) was < 7.00.
